Results reported in US9249129B2, “Morpholino substituted urea derivatives as mTOR inhibitors” (CELLZOME LIMITED, priority 2010, dated 2016).

Legend:
Experiment in all cases: kinobeads assay with mass spectrometry detection of kinases (kinase selectivity profile)
Type in all cases: binding
[1] = target: T1, kinases (kinome) (Homo sapiens, UniProt Q9UL54); details: TAO2 (STE), IPI00006283
T1 construct: determined in kinobeads assays with mass spectrometry detection of kinases as described previously; endogenous in cells; host or cells: cell lysate
T1 sequence (Q9UL54 1-1235): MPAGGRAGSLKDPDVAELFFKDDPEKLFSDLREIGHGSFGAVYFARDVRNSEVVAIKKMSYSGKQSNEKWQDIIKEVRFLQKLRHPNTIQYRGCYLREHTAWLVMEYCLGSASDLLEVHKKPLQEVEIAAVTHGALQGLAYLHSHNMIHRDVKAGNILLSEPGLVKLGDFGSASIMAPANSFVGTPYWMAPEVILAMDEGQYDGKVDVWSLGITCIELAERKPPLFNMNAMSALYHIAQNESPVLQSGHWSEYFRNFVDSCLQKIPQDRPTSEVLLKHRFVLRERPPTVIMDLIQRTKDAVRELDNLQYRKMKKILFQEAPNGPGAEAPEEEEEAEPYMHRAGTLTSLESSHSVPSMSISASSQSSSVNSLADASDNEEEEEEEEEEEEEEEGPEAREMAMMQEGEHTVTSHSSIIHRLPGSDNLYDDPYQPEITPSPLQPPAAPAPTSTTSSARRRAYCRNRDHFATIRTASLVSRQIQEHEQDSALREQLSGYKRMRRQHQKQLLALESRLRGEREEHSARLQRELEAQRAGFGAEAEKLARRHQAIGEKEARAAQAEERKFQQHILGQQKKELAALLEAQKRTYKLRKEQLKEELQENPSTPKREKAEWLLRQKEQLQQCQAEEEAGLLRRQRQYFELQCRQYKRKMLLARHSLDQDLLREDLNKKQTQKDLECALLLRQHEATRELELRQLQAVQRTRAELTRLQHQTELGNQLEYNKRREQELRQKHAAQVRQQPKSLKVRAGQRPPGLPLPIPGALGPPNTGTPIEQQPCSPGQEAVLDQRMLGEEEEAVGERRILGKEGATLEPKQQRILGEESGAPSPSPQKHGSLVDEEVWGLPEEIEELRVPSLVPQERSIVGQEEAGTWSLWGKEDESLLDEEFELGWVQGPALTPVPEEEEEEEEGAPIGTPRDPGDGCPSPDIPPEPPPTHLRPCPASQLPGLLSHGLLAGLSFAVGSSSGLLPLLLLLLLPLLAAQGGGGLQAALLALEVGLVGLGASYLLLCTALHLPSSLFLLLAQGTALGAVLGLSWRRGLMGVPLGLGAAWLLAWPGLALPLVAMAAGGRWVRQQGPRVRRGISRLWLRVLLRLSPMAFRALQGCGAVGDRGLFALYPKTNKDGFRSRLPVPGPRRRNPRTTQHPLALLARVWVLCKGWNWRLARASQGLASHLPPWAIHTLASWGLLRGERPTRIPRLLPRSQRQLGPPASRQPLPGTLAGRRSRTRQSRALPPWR
Text: (§1) The protein kinase complement of the human genome (the kinome) was described previously (Manning et al., 2002. Science 298(5600):1912-1934). Sequence accession numbers are defined by the International Protein Index (IPI) (Kersey et al., 2004. Proteomics 4(7):1985-1988).

[2] = target: T2, kinases (kinome) (Homo sapiens, UniProt P27361); details: Erk1 (CMGC), IPI00018195
T2 construct: determined in kinobeads assays with mass spectrometry detection of kinases as described previously; endogenous in cells; host or cells: cell lysate
Text: as §1

[3] = target: T3, kinases (kinome) (Homo sapiens, UniProt P29597); details: TYK2 (TK), IPI00022353
T3 construct: determined in kinobeads assays with mass spectrometry detection of kinases as described previously; endogenous in cells; host or cells: cell lysate
Text: as §1

[4] = target: T4, kinases (kinome) (Homo sapiens, UniProt Q9H0K1); details: QIK (CAMK), IPI00465291
T4 construct: determined in kinobeads assays with mass spectrometry detection of kinases as described previously; endogenous in cells; host or cells: cell lysate
Text: as §1

[5] = target: T5, kinases (kinome) (Homo sapiens, UniProt P30291); details: Wee1 (Other), IPI00025830
T5 construct: determined in kinobeads assays with mass spectrometry detection of kinases as described previously; endogenous in cells; host or cells: cell lysate
Text: as §1

[6] = target: T6, kinases (kinome) (Homo sapiens, UniProt O00329); details: PIK3Cd (Lipid Kinase), IPI00384817
T6 construct: determined in kinobeads assays with mass spectrometry detection of kinases as described previously; endogenous in cells; host or cells: cell lysate
T6 sequence (O00329 1-1044): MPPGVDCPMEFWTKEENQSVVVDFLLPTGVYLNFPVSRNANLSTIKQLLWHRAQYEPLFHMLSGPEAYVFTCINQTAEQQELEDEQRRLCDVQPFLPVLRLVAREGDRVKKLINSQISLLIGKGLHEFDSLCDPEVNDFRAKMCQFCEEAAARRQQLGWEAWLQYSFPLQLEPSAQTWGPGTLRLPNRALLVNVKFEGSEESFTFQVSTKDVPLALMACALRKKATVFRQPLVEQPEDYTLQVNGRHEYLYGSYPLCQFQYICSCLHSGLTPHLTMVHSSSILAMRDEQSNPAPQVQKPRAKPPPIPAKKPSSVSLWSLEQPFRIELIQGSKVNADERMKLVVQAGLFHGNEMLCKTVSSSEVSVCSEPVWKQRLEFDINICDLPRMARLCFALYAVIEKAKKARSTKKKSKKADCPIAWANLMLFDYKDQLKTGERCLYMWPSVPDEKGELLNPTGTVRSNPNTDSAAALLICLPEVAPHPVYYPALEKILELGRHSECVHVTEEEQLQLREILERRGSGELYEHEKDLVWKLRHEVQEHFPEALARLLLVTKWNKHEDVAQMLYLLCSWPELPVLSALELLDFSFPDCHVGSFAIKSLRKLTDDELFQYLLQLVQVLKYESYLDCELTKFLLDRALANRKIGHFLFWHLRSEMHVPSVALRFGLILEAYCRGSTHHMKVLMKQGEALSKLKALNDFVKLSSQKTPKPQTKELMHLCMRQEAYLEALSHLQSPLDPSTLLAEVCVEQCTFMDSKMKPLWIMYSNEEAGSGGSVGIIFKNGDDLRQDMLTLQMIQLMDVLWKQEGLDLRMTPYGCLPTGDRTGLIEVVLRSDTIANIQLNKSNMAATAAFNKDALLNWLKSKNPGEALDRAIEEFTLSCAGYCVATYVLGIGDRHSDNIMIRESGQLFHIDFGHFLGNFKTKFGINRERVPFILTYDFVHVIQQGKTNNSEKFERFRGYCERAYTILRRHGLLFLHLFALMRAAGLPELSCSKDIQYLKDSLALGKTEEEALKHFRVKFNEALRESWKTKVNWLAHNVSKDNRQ
Text: as §1

[7] = target: T7, kinases (kinome) (Homo sapiens, UniProt P48736); details: PIK3Cg (Lipid Kinase), IPI00292690
T7 construct: determined in kinobeads assays with mass spectrometry detection of kinases as described previously; endogenous in cells; host or cells: cell lysate
Text: as §1

Measured: IC50

T2 sequence (P27361 whole entry): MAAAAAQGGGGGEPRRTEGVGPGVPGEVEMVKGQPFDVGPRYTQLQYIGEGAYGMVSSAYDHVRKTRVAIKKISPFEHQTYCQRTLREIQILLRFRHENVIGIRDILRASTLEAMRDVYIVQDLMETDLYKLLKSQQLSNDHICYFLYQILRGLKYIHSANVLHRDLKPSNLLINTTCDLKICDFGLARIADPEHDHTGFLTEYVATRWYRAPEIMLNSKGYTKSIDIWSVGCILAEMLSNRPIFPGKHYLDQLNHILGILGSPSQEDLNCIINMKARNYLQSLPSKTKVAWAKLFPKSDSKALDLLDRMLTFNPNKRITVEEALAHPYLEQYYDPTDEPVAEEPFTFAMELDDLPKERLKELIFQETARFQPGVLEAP
T7 sequence (P48736 whole entry): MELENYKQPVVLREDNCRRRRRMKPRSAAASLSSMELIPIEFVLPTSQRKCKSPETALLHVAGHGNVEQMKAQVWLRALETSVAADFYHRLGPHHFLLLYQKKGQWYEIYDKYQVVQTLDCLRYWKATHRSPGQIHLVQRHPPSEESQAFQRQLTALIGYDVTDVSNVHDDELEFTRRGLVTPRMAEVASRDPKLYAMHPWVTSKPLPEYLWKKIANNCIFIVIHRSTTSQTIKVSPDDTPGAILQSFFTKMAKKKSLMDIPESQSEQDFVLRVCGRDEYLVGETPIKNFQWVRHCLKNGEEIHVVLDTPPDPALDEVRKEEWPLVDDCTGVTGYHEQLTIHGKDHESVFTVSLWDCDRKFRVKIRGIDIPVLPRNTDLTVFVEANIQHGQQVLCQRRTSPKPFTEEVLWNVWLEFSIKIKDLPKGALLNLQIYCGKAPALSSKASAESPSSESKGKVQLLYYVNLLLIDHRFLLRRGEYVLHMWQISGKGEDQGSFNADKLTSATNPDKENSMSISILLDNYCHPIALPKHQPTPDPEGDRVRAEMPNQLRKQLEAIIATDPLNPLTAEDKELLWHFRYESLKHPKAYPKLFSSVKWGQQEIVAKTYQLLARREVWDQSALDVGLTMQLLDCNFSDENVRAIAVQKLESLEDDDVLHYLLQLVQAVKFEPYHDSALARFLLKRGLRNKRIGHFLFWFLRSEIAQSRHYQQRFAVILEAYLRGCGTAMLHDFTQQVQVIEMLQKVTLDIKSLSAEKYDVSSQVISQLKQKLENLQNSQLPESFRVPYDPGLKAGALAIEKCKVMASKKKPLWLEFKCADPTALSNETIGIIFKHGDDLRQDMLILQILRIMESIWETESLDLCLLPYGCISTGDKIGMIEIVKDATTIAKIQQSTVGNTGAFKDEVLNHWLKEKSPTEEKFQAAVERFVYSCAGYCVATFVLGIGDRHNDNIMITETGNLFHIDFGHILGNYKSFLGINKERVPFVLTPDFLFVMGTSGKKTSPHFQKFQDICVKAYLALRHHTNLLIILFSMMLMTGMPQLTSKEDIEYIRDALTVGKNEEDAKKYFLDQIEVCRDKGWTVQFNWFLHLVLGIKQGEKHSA
T4 sequence (Q9H0K1 whole entry): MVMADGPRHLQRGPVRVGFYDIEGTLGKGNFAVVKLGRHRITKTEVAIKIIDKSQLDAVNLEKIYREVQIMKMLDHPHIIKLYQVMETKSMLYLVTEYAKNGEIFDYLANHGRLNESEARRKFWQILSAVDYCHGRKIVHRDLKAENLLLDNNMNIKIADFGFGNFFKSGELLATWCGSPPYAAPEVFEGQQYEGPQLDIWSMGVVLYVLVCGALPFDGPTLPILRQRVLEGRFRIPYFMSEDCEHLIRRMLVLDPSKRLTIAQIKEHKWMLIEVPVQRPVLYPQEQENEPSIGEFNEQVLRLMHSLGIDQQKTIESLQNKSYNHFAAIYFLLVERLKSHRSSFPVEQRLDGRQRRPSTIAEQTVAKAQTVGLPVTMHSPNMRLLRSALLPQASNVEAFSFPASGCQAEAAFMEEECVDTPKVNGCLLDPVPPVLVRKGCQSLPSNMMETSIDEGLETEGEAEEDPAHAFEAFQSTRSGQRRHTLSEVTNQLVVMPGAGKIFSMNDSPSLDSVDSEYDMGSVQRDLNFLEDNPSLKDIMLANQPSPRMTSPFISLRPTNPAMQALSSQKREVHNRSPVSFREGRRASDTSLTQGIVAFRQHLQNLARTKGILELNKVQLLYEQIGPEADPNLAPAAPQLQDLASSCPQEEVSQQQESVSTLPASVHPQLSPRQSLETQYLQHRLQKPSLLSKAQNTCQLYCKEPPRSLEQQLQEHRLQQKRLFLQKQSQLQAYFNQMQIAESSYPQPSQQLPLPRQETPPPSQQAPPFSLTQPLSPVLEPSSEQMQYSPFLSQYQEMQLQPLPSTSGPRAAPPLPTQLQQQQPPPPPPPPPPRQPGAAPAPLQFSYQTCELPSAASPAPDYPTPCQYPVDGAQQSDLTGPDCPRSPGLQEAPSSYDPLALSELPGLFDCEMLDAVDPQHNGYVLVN
T3 sequence (P29597 whole entry): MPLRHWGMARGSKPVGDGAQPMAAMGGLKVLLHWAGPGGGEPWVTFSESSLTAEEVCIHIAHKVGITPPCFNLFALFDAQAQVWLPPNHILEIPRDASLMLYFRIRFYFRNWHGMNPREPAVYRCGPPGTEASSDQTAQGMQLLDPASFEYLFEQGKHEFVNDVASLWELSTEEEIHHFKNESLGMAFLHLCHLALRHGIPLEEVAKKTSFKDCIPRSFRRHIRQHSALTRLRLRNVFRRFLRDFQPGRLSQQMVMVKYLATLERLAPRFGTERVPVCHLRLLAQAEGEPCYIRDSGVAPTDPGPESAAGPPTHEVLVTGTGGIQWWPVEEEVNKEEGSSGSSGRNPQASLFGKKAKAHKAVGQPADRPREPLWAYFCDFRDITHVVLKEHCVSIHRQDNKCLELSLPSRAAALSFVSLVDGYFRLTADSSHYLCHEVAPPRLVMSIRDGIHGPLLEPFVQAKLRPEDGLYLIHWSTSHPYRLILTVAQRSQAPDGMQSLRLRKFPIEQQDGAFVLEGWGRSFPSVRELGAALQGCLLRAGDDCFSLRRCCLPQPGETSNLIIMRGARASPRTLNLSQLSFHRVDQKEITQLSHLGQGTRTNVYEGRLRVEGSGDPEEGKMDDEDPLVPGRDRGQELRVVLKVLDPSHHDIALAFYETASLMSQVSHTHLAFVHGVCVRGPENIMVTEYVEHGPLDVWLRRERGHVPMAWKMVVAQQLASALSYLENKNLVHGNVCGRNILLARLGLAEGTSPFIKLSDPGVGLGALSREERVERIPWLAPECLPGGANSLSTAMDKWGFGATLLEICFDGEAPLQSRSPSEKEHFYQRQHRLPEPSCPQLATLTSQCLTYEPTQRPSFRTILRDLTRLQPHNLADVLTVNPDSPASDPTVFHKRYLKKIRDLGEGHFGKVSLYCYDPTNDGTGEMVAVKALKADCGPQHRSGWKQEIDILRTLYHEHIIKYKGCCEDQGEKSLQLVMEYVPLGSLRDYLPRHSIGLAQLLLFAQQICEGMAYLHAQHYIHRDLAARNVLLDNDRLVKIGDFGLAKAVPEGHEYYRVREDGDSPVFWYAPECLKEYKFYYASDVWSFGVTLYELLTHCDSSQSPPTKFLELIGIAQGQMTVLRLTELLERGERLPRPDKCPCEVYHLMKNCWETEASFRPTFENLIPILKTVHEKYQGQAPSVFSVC
T5 sequence (P30291 whole entry): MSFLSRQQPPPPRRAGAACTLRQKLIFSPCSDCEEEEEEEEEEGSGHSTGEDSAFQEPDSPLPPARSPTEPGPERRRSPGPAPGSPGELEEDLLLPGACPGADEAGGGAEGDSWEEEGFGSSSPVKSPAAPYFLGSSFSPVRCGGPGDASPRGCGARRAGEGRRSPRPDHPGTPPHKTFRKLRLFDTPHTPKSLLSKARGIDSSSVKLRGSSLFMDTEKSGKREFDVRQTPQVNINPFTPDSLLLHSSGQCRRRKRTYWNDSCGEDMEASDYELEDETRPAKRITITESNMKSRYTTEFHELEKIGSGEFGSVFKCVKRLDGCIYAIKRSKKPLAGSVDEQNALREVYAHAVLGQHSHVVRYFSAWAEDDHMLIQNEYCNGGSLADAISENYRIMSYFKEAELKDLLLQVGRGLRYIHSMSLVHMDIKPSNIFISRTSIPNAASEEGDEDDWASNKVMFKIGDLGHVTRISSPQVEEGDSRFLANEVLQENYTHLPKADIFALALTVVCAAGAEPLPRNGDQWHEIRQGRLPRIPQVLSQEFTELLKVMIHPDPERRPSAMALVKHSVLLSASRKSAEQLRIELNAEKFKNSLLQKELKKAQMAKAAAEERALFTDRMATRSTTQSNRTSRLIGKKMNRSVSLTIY

C[C@H]1COCCN1c1nc(-c2ccc(NC(=O)NC3CC3)cc2)cc(-c2ccccc2S(C)(=O)=O)n1 [Example 4, (S)-1-cyclopropyl-3-(4-(2-(3-methylmorpholino)-6-(2-(methylsulfonyl)phenyl)pyrimidin-4-yl)phenyl)urea]
> 10 µM: all assays above

C[C@H]1COCCN1c1cc(-c2ccccc2S(C)(=O)=O)nc(-c2ccc(NC(=O)NC3CC3)cc2)n1 [Example 6, (S)-1-cyclopropyl-3-(4-(4-(3-methylmorpholino)-6-(2-(methylsulfonyl)phenyl)pyrimidin-2-yl)phenyl)urea]
> 10 µM: all assays above

CCNC(=O)Nc1ccc(-c2cc(-c3ccccc3C#N)nc(N3CCOC[C@@H]3C)n2)cc1 [Example 8, (S)-1-(4-(6-(2-cyanophenyl)-2-(3-methylmorpholino)pyrimidin-4-yl)phenyl)-3-ethylurea]
> 10 µM: all assays above

C[C@H]1COCCN1c1nc(-c2ccc(NC(=O)NC3CC3)cc2)cc(-c2cc(F)ccc2S(C)(=O)=O)n1 [Example 40, (S)-1-cyclopropyl-3-(4-(6-(5-fluoro-2-(methylsulfonyl)phenyl)-2-(3-methylmorpholino)pyrimidin-4-yl)phenyl)urea]
> 10 µM: all assays above

C[C@H]1COCCN1c1cc(-c2ccccn2)nc(-c2ccc(NC(=O)NCCO)cc2)n1 [Example 43, (S)-1-(2-hydroxyethyl)-3-(4-(4-(3-methylmorpholino)-6-(pyridin-2-yl)pyrimidin-2-yl)phenyl)urea]
> 10 µM: all assays above

C[C@H]1COCCN1c1nc(-c2ccc(NC(=O)NC3CC3)cc2)cc(-c2cccnc2S(C)(=O)=O)n1 [Example 46, (S)-1-cyclopropyl-3-(4-(2-(3-methylmorpholino)-6-(2-(methylsulfonyl)pyridin-3-yl)pyrimidin-4-yl)phenyl)urea]
> 10 µM: all assays above

C[C@H]1COCCN1c1nc(-c2ccc(NC(=O)N[C@H]3CCC[C@@H]3O)cc2)cc(-c2cc(F)ccc2S(C)(=O)=O)n1 [Example 76, 1-(4-(6-(5-fluoro-2-(methylsulfonyl)phenyl)-2-((S)-3-methylmorpholino)pyrimidin-4-yl)phenyl)-3-((1S,2S)-2-hydroxycyclopentyl)urea]
> 10 µM: all assays above
